The term Ki denotes a dissociation constant, usually derived from enzyme kinetics or from competition with a known ligand.

A value given as a limit tells only on which side of the number the result lay.

Data set [1] is described as follows: Isoelectric point by isoelectric focusing. Format: physicochemical. How it is done: After staining, the migration distance from the cathodic edge of the gel to the different protein bands was measured. The pI of each unknown was determined by using a standard curve generated by a plot of the migration distance of standards versus the corresponding pI's. […] (Tenstad et al., 1994, Acta Physiol. Scand. 152: 33-50).

Data set [2] deals with bovine pancreatic kallikrein. Put plainly: Inhibition of bovine pancreatic kallikrein, Ki. Format: biochemical. Particulars: Table 4A; Bovine Pancreatic Kallikrein (92.0 pM). How it is done:
After 5 min. at 37° C., 15 μl of 2 mM GPK-AMC was added and the change in fluorescence (as above) was monitored. […] After 5 min. incubation at 37° C., 25 μl of 20 mM GPK-AMC was added and the change in fluorescence monitored. […] After 5 min. at 37° C. 15 μl of 20 mM PFR-AMC was added and the change in fluorescence monitored.

For data set [3], the target named is T1, human neutrophil elastase (Homo sapiens, UniProt P08246).
T1 sequence (P08246 30-267): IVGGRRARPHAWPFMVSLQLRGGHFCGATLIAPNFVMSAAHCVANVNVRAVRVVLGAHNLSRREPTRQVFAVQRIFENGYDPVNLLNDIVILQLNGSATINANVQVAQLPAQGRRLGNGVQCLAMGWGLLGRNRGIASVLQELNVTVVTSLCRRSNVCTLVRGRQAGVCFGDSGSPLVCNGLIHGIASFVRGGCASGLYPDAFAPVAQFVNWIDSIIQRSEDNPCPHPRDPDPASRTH
Put plainly: Inhibition of human neutrophil elastase, Ki (Dixon plots). To be noted: Table 4A; elastase. Format: biochemical. The protocol: […] Ki values were determined from Dixon plots of the form 1/V versus performed at two different substrate concentrations (Dixon et al., 1979).

As for `CC[C@H](C)[C@H](N)C(=O)N[C@@H](Cc1c[nH]cn1)C(=O)N[C@@H](CC(=O)O)C(=O)N[C@@H](Cc1ccccc1)C(=O)N[C@H]1CSSC[C@@H](C(=O)N[C@@H](C)C(=O)N[C@H](C(=O)N[C@H](C(=O)O)C(C)C)[C@@H](C)O)NC(=O)[C@H](CCCCN)NC(=O)[C@H](CCCCN)NC(=O)[C@H](CC(C)C)NC(=O)[C@@H]2CSSC[C@@H]3NC(=O)[C@H](CO)NC(=O)CNC(=O)[C@H](CC(=O)O)NC(=O)[C@H]([C@@H](C)O)NC(=O)[C@H](C(C)C)NC(=O)[C@H](CC(N)=O)NC(=O)[C@H](Cc4ccc(O)cc4)NC(=O)[C@H](Cc4c[nH]c5ccccc45)NC(=O)[C@H](Cc4c[nH]c5ccccc45)NC(=O)[C@H](CCCNC(=N)N)NC(=O)[C@@H]4CCCN4C(=O)[C@H](CCSC)NC(=O)[C@H](CO)NC(=O)[C@H](C)NC(=O)[C@H](CCCNC(=N)N)NC(=O)[C@H](CSSC[C@H](NC(=O)CNC(=O)CNC(=O)[C@H](Cc4ccc(O)cc4)NC(=O)[C@H](C(C)C)NC(=O)[C@H](Cc4ccccc4)NC(=O)[C@H](CC(C)C)NC(=O)[C@H](CCC(N)=O)NC3=O)C(=O)N[C@@H](CC(=O)O)C(=O)NCC(=O)N[C@@H](CC(N)=O)C(=O)N[C@@H](CO)C(=O)N[C@@H](CC(N)=O)C(=O)N[C@@H](CC(N)=O)C(=O)N[C@@H](Cc3ccc(O)cc3)C(=O)N[C@@H](CC(C)C)C(=O)N[C@@H]([C@@H](C)O)C(=O)N[C@@H](CCCCN)C(=O)N[C@@H](CCC(=O)O)C(=O)N[C@@H](CCC(=O)O)C(=O)N2)NC(=O)[C@H](CCCNC(=N)N)NC(=O)CNC(=O)[C@H](C(C)C)NC(=O)[C@H](C(C)C)NC(=O)[C@H](CCCCN)NC(=O)[C@H](CO)NC(=O)[C@H](C(C)C)NC(=O)[C@H](CC(C)C)NC1=O` [bikunin (7-64)], the pI result in data set [1] (first preparation of bikunin (7-64) (possibly not completely deprotected), migrated to the cathodic edge of the gel (pH 9.5)) was “much higher than the predicted value”; in data set [1] (refolded purified protein, Ampholine PAGplate (pH 3.5 to 9.5)), 8.85. Moreover, the inhibitory constant (Ki) in data set [2] is 0.4 nM; in data set [3] it was more than 100 nM.

The values above are taken from patent US20070086956A1, “Method for accelerating the rate of mucociliary clearance” (BAYER AKTIENGESELLSCHAFT, priority 1998, published 2007).
